Results as given in publication PMC4180945 (Tetrahedron, 2014).

Legend:
[1] = target: bovine serum albumin (BSA) (Bos taurus, UniProt P02769); assay: Selectivity binding to arbitrarily selected protein: BSA
[2] = target: GST-FKBP12 fusion protein (Homo sapiens, UniProt P62942); assay: Selectivity binding to arbitrarily selected protein: GST-FKBP12
[3] = target: T1, GST-SHD SH2 domain fusion protein (Homo sapiens, UniProt Q96IW2); assay: Selectivity binding to arbitrarily selected protein: GST-SHD SH2
T1 sequence (Q96IW2 240-335 limits assumed): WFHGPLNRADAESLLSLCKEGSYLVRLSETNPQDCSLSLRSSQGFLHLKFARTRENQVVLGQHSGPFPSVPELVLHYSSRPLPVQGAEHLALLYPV

[4] = target: T2, protein-tyrosine phosphatase 1B (PTP1B) (Homo sapiens, UniProt P18031); assay: Selectivity binding to arbitrarily selected protein: PTP1B
T2 sequence (P18031 1-435): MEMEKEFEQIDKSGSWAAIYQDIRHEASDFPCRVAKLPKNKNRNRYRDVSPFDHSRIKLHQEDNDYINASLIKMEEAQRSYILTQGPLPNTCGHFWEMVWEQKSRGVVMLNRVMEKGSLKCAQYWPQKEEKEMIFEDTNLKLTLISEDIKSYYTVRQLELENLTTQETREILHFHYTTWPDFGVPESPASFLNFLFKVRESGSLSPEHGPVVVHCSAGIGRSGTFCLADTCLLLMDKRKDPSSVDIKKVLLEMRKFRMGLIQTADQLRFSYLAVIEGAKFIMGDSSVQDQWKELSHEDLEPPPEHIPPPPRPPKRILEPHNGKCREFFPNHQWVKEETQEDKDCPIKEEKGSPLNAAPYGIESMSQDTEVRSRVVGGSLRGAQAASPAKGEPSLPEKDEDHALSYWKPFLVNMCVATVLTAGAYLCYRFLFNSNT

[5] = target: maltose-binding protein-XIAP BIR3 domain fusion (MBP-BIR3) (Homo sapiens, UniProt P98170); assay: Selectivity binding to arbitrarily selected protein: MBP-BIR3
Sequence of maltose-binding protein-XIAP BIR3 domain fusion (MBP-BIR3) (P98170 241-356 limits assumed): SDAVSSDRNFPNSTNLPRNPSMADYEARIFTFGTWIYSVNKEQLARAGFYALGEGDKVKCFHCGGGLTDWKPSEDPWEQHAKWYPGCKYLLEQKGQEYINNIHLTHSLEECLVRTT

Sequence of bovine serum albumin (BSA) (P02769 25-607): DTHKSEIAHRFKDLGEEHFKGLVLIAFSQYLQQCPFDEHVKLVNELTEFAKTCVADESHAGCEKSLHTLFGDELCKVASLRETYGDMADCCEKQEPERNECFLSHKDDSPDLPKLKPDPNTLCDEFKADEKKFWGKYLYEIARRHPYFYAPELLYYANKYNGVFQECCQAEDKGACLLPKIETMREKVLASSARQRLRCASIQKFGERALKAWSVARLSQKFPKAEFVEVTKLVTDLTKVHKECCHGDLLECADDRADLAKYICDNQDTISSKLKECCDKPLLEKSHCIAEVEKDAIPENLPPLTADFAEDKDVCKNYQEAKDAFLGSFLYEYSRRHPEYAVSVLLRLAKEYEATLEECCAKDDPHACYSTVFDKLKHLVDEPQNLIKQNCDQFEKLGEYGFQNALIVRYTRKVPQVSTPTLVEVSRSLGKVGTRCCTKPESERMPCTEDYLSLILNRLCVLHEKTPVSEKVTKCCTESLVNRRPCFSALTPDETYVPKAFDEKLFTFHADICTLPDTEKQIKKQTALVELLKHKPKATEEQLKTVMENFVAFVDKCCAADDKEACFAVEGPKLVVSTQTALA
Sequence of GST-FKBP12 fusion protein (P62942 whole entry, the tested form may be a part): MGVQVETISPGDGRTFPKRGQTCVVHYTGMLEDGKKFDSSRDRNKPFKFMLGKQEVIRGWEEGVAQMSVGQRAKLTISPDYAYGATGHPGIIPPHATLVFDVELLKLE

Trp-phe-Asp-Lys-phe-asn-His-Dap [Peptide 38]
Fold higher KD for BSA than that of K-Ras [1]: 47-120 fold | Binding to GST-FKBP12 [2]: no binding | Fold higher KD for GST-SHD SH2 than that of K-Ras [3]: 47-120 fold | Binding to PTP1B [4]: no binding | Fold higher KD for MBP-BIR3 than that of K-Ras [5]: 47-120 fold
